Test results published in the supplement of paper PMC11451515.

Test system: SEM cells
Assay: cell viability relative to DMSO control; higher = less cytotoxic
Details: 48 h
In short: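 Viability was expressed as a per-plate percentage of DMSO wells, with cell-free wells as background. Leukemia cells (NOMO1 or SEM at 500 cells/well, P12-Ichikawa at 1000 cells/well) were adapted for at least four passages in each medium and seeded in 1536-well plates (5 μl). Library compounds in DMSO were pin-dosed over an 11-point threefold series from 47 μM to 0.79 nM, and CellTiter-Glo One luminescence was read after 48 h at 37°C.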

[1] = HPLM + 10% dialyzed FBS, 0.000781 µM
[2] = HPLM + 10% dialyzed FBS, 0.00234 µM
[3] = HPLM + 10% dialyzed FBS, 0.00702 µM
[4] = HPLM + 10% dialyzed FBS, 0.0211 µM
[5] = HPLM + 10% dialyzed FBS, 0.0632 µM
[6] = HPLM + 10% dialyzed FBS, 0.19 µM
[7] = HPLM + 10% dialyzed FBS, 0.569 µM
[8] = HPLM + 10% dialyzed FBS, 1.71 µM
[9] = HPLM + 10% dialyzed FBS, 5.12 µM
[10] = HPLM + 10% dialyzed FBS, 15.4 µM
[11] = HPLM + 10% dialyzed FBS, 46.1 µM
[12] = RPMI 5 mM glucose + 10% FBS, 0.000781 µM
[13] = RPMI 5 mM glucose + 10% FBS, 0.00234 µM
[14] = RPMI 5 mM glucose + 10% FBS, 0.00702 µM
[15] = RPMI 5 mM glucose + 10% FBS, 0.0211 µM
[16] = RPMI 5 mM glucose + 10% FBS, 0.0632 µM
[17] = RPMI 5 mM glucose + 10% FBS, 0.19 µM
[18] = RPMI 5 mM glucose + 10% FBS, 0.569 µM
[19] = RPMI 5 mM glucose + 10% FBS, 1.71 µM
[20] = RPMI 5 mM glucose + 10% FBS, 5.12 µM
[21] = RPMI 5 mM glucose + 10% FBS, 15.4 µM
[22] = RPMI 5 mM glucose + 10% FBS, 46.1 µM
[23] = RPMI 5 mM glucose + 10% dialyzed FBS, 0.000781 µM
[24] = RPMI 5 mM glucose + 10% dialyzed FBS, 0.00234 µM
[25] = RPMI 5 mM glucose + 10% dialyzed FBS, 0.00702 µM
[26] = RPMI 5 mM glucose + 10% dialyzed FBS, 0.0211 µM
[27] = RPMI 5 mM glucose + 10% dialyzed FBS, 0.0632 µM
[28] = RPMI 5 mM glucose + 10% dialyzed FBS, 0.19 µM
[29] = RPMI 5 mM glucose + 10% dialyzed FBS, 0.569 µM
[30] = RPMI 5 mM glucose + 10% dialyzed FBS, 1.71 µM
[31] = RPMI 5 mM glucose + 10% dialyzed FBS, 5.12 µM
[32] = RPMI 5 mM glucose + 10% dialyzed FBS, 15.4 µM
[33] = RPMI 5 mM glucose + 10% dialyzed FBS, 46.1 µM

SMILES	cell viability [1]	cell viability [2]	cell viability [3]	cell viability [4]	cell viability [5]	cell viability [6]	cell viability [7]	cell viability [8]	cell viability [9]	cell viability [10]	cell viability [11]	cell viability [12]	cell viability [13]	cell viability [14]	cell viability [15]	cell viability [16]	cell viability [17]	cell viability [18]	cell viability [19]	cell viability [20]	cell viability [21]	cell viability [22]	cell viability [23]	cell viability [24]	cell viability [25]	cell viability [26]	cell viability [27]	cell viability [28]	cell viability [29]	cell viability [30]	cell viability [31]	cell viability [32]	cell viability [33]
O=C(NCCO[N+](=O)[O-])c1cccnc1	99.3%	64.4%	107%	114%	105%	97.1%	101%	98.7%	108%	105%	115%	100%	92.8%	112%	111%	112%	114%	96.1%	102%	112%	121%	108%	107%	89.6%	112%	109%	97.6%	111%	96.6%	105%	110%	111%	110%
CC1(C)Cc2c(sc(NC(=S)NC(=O)c3ccccc3)c2C(=O)O)CO1	74.1%	89.5%	91.9%	89.1%	96.7%	98.3%	97.6%	108%	101%	88.3%	101%	94%	109%	108%	93.1%	112%	112%	110%	113%	101%	105%	106%	65.2%	84%	85.4%	87.8%	96.6%	88.3%	95.4%	91.7%	89.6%	102%	88.5%
CN[C@H]1[C@H](O[C@@H]2[C@H](O[C@@H]3[C@@H](O)[C@@H](O)[C@@H](NC(=N)N)[C@@H](O)[C@H]3NC(=N)N)O[C@H](C)[C@@]2(O)C=O)O[C@@H](CO)[C@@H](O)[C@H]1O	93.2%	89.9%	79.7%	80.2%	79.9%	82.2%	83.7%	57%	83.3%	82.1%	78.6%	95.1%	116%	119%	114%	114%	110%	104%	44.8%	103%	85.6%	99.3%	109%	103%	118%	114%	117%	114%	109%	80.4%	103%	111%	101%
CCc1cccc2c3c([nH]c12)C(CC)(CC(=O)O)OCC3 (stereo not given)	105%	90.9%	105%	112%	101%	120%	114%	108%	103%	47.2%	103%	83.6%	37.6%	85.4%	96.2%	98%	87.6%	105%	102%	105%	40.7%	91.9%	94.2%	93%	102%	107%	112%	103%	102%	110%	105%	34.7%	89.4%
CCCCCCCCOc1ccccc1C(=O)Nc1ccc(C(=O)OCC[N+](C)(CC)CC)cc1	105%	115%	101%	105%	102%	112%	108%	96.6%	73.9%	91.2%	57.2%	98.2%	93%	84.5%	102%	96.9%	102%	97%	85.6%	49.5%	93.5%	33.4%	97%	109%	90.4%	99.9%	107%	121%	104%	95.3%	75.5%	118%	30.7%
Cc1ccc(NC(=O)Nc2cc(C(F)(F)F)ccc2F)cc1Nc1ccc2c(c1)NC(=O)/C2=C\c1ccc[nH]1	108%	131%	121%	115%	118%	127%	131%	120%	111%	87.6%	16.2%	–	–	–	–	–	–	–	–	–	–	–	120%	116%	122%	111%	138%	139%	124%	124%	102%	76.2%	4.96%
NC(=O)c1ccc(-c2nc(-c3ccc4c(c3)OCO4)c(-c3ccccn3)[nH]2)cc1	123%	116%	128%	25.6%	130%	121%	124%	125%	128%	129%	122%	93.4%	85.5%	98.2%	9.45%	89.5%	86.8%	92.1%	93.7%	102%	86.3%	66.9%	108%	123%	110%	18.9%	120%	111%	128%	131%	123%	134%	102%
Cn1cnc(-c2cc3nccc(Oc4ccc(NC(=S)NC(=O)Cc5ccccc5)cc4F)c3s2)c1	53.6%	82.3%	67.1%	57.5%	46%	46.9%	43.9%	30.5%	31.2%	32.4%	12.8%	82.5%	94.7%	85.6%	68.4%	53.7%	66.1%	46.2%	38.2%	30.5%	24.8%	2.88%	68.9%	63.1%	70%	43.8%	35.3%	36%	35.3%	25.4%	24.7%	20.1%	4.88%
CCOC(CN1C(=O)[C@](CC(=O)Nc2ccc(C)cc2)(NC(=O)Nc2ccc(C)cc2)c2ccccc21)OCC	117%	101%	105%	120%	105%	116%	114%	102%	86.6%	99.6%	73.5%	99%	98.8%	113%	108%	99.4%	108%	119%	87.7%	75.9%	77.3%	79.9%	109%	115%	100%	113%	122%	113%	110%	98.4%	102%	105%	66.5%
C=CC(=O)Nc1cccc(Oc2nc(Nc3ccc(N4CCN(C)CC4)cc3OC)ncc2Cl)c1	58.4%	72.7%	56.4%	65.8%	74%	81.1%	72.3%	68.5%	33.2%	48%	13.3%	80.4%	89.2%	60.5%	88.2%	94.2%	91.2%	56.4%	65.3%	22.6%	41.6%	5.05%	62.5%	69.8%	52.6%	58.2%	70.8%	72.9%	64.1%	42.3%	24.1%	41.8%	18%
Oc1cc2c(cc1O)C1c3ccc(O)c(O)c3OCC1(O)C2 (stereo not given)	83.5%	32.7%	89.1%	88.3%	100%	102%	93%	100%	99.7%	100%	90.6%	83.8%	36.7%	99.2%	102%	91.3%	105%	101%	88.8%	108%	101%	87.7%	92.7%	34.3%	102%	91.7%	86.4%	107%	92.9%	106%	104%	111%	89.5%
CN1C2=CC(=O)/C(=N/NC(N)=O)C=C2CC1S(=O)(=O)[O-].[Na+] (stereo not given)	79.9%	110%	96.7%	103%	103%	110%	117%	105%	124%	103%	115%	109%	108%	114%	115%	103%	115%	112%	121%	128%	125%	112%	95.5%	109%	98.5%	110%	94.6%	116%	126%	114%	118%	117%	109%
O=[S+]([O-])(/N=C/c1c(O)ccc2ccccc12)c1cccs1	97%	114%	101%	109%	110%	110%	112%	66.8%	104%	88.3%	81.9%	113%	116%	108%	106%	113%	120%	102%	74.3%	93.3%	94.5%	68.5%	98.7%	136%	109%	112%	131%	118%	115%	79.5%	98.2%	91.1%	98.7%
O=C(O)[C@@H](c1ccc(OCc2ccc3ccccc3n2)cc1)C1CCCC1	116%	124%	122%	114%	123%	45.5%	125%	114%	43.4%	113%	95.6%	–	–	–	–	–	–	–	–	–	–	–	109%	151%	120%	127%	148%	52%	129%	124%	19.4%	114%	83.1%
Cn1cc(-c2cnn3c(N)c(Br)c([C@@H]4CCCNC4)nc23)cn1	75.1%	93.2%	94.8%	86.4%	93.6%	93.6%	71.3%	29.1%	19.4%	16.7%	8.44%	87.4%	99.9%	101%	94.4%	91.8%	93.6%	96.6%	63%	22.4%	16.3%	7.88%	76.8%	90.9%	84.6%	88.9%	83.6%	94.2%	69.5%	31.3%	13.2%	12.8%	7.35%
CC(Cc1ccc(O)c(O)c1)(NN)C(=O)O (stereo not given)	103%	121%	130%	125%	122%	131%	105%	112%	108%	119%	79.9%	117%	130%	122%	127%	126%	119%	99%	121%	110%	113%	76.1%	–	–	–	–	–	–	–	–	–	–	–
